Patent US11554123B2, “Compositions and methods for reactivating latent HIV-1 infections” (Saint Joseph's University, priority 2017, dated 2023)
Several values for one entry are separate records, joined by “and”; a condition that tells them apart may be missing. Equal values may be shown once. Entries after “also recorded” stand apart in the source; their conditions may differ. Read-outs that look alike come from different tables or passages of the source.

Key:
Type in all cases: cell-based
[1] = tested on: H3K9ac at the integrated HIV-1 long terminal repeat (LTR); experiment: ChIP for H3K9ac at integrated HIV-1 LTR in TZMbl cells; settings: 48 h; for H3K9ac at the HIV-1 LTR versus SAHA alone (in words): 50 μM Ro5-3335, 10 μM Alprazolam or 10 μM Clonazepam with 5 μM SAHA
Procedure: (§1) TZMbl cells were cultured with benzodiazepines for 48 hours before chromatin immunoprecipitation analysis. Following treatment, cells were processed for chromatin immunoprecipitation using the Pierce Agarose ChIP Kit (Fisher Scientific) using commercially available antibodies against histone H3 lysine 9 acetylation, STATS, and CBP/P300. Degree of occupancy at the integrated HIV-1 LTR was determined by qPCR using HIV-1 LTR specific primers run on a BioRad CFX384 qPCR machine using Sybr Green methodology.
In order to test the changes driven by these compounds, chromatin immunoprecipitation (ChIP) assays were performed to examine the presence of various proteins and modifications at the integrated HIV-1 long terminal repeat (LTR). TZMbl cells were treated for 48 hours with 50 μM Ro5-3335, 10 μM Alprazolam and 10 μM Clonazepam with or without 5 μM SAHA Acetylation of histone 3 at lysine 9 (H3K9ac) was first examined (FIG. 3B). […] None of the benzodiazepines were able to alter H3K9ac when used alone.

[2] = tested on: latent HIV-1 in JLat10.6 cell line model of T-cell latency; settings: for maximal effect in dose dependent reactivation (in words): compared with Alprazolam; for percentage of GFP+ live cells: 10 μM benzodiazepine used independently, 48 h, FIG. 1A, DMSO background 2.8%; for activation compared with the other tested benzodiazepines (in words): in the presence or absence of SAHA
HIV-1 Tat = target: T1, HIV-1 Tat (Human immunodeficiency virus type 1 group M subtype B, UniProt P04608); settings: TZMbl cells transfected with Tat plasmid, 24 h treatment, FIG. 3E
T1 construct: expressed in transfected cells; host or cells: TZMbl cells
T1 sequence (P04608 whole entry): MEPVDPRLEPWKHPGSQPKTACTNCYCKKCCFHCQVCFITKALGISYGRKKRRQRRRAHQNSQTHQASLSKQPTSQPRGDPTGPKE

RUNX1 responsive genes = experiment: RUNX responsive gene expression (qPCR) in PBMCs from HIV-1 patients; settings: PBMCs of three HIV-1 patients, 48 h
Procedure: (§2) To evaluate the ability of Alprazolam to reactivate latent cells from patients we obtained PBMCs from two HIV-1 patients who had been suppressed on therapy for greater than 6 months. 10×10^6 PBMCs were divided between three conditions: DMSO control, 50 μM Ro5-3335 and 10 μm Alprazolam. PBMCs were cultured in RPMI with 10% FBS and the given drugs for twenty-four hours. RNA was extracted from the cells and used for RTqPCR to detect HIV-1 Gag mRNA. RNA was extracted using Trizol reagent (Invitrogen) following manufacturer's protocol. Following reverse transcription, the samples were diluted 1:50, and 2.5 microliters were used for quantitative PCR in a BioRad CFX384 qPCR machine. All mRNA analyses were normalized to GAPDH. Nucleic acid amplification was tracked by SYBR Green method.
Next, expression of several RUNX responsive genes in PBMCs in response to Ro5-3335 and Alprazolam was examined. Samples from three HIV-1 patients were treated with Alprazolam or Ro5-3335 for 48 hours. RNA was harvested using Trizol and cDNA was synthesized using RT reaction. qPCR was performed using primers for seven known RUNX1 responsive genes: APOBEC3C, APOBEC3G, Tbet, RUNX1 d, IL-2, IL7R and STAH (FIG. 5).

CBP/P300 = experiment: ChIP for CBP/P300 at integrated HIV-1 LTR in TZMbl cells; settings: for recruitment of CBP/P300 to the HIV-1 LTR: addition of 50 μM Ro5-3335 or 10 μM Alprazolam, 48 h, FIG. 3D
Procedure: as §1
Therefore, ChIP was performed for STATS to determine if benzodiazepine treatment might increase the recruitment of STATS above SAHA treatment (FIG. 3C). All three benzodiazepines were capable of driving recruitment of STATS to the promoter, and further recruitment was seen when used in combination with SAHA. STATS is capable of recruiting the histone acetyl transferase CBP/P300 that acetylates histone 3 at lysine 27, a residue that is not affected by SAHA. […] Addition of both Ro5-3335 and Alprazolam induced recruitment of CBP/P300 to the HIV-1 LTR (by 3 and 7 fold respectively).

HIV-1 Gag mRNA = HIV-1 Gag mRNA (RTqPCR) in ex vivo treated PBMCs from HIV-1 patients; settings: 24 h; for increase in HIV-1 Gag RNA: 10 μm Alprazolam
Procedure: as §2
In order to evaluate the ability of Alprazolam to reactivate latent cells from patients, PBMCs were obtained from two HIV-1 patients who had been suppressed on therapy for greater than 6 months. 10×10^6 PBMCs were divided between three conditions: DMSO control, 50 μM Ro5-3335 and 10 μm Alprazolam. PBMCs were cultured in RPMI with 10% FBS and the given drugs for twenty-four hours. RNA was extracted from the cells and used for RTqPCR to detected HIV-1 Gag mRNA (FIG. 6). […] Treatment with Alprazolam produced detectable reactivation of HIV-1 transcripts.

IL-17 promoter = IL-17 promoter luciferase reporter assay in 293T cells
[3] = tested on: acetylated histone 3 at lysine 9 (H3K9); experiment: NUCLEO-M imaging of acetylated H3K9 in isolated nuclei; settings: FIG. 3A
Procedure: Transcriptionally competent nuclei were isolated from TZM-bl cells by chemical lysis and stored following manufacturer's recommendations (Nuclei Isolation Kit: Nuclei EZ Prep, Sigma-Aldrich, Nuc-101). Nuclei were stained for 1 hour on ice in 5% FBS/PBS solution containing primary antibodies. Nuclei were washed twice in 5% FBS/PBS and stained for 1 hour on ice with appropriate secondary antibodies conjugated with fluorescent dyes. Nuclei were finally washed twice in 5% FBS/PBS and resuspended in the storage buffer provided by the kit (Nuclei Isolation Kit: Nuclei EZ Prep, Sigma-Aldrich, Nuc-101).
Isolated nuclei and TZM-bl cells seeded on a chambered coverglass (NUNC® LAB-TEK® Chambered Coverglass, Thermo Fisher) were imaged with a Zeiss AXIOVERT® microscope with a Zeiss alpha PLAN-FLUAR® 100×, 1.45 N.A., oil objective and a spinning disk confocal scan head (Yokogawa CSU-X1). A 488 nm laser source with 488-25 nm, 617-73 nm and 692-40 nm emission filters were used for the illumination of Alexa Fluor® 488 dye (Thermo Fisher) or SYTO® RNA SELECT® Green Fluorescent cell Stain (Thermo Fisher), and PerCP-Cy5.5 (BD Biosciences) respectively. A 561 nm laser source with 568-25 nm emission filters was used for illumination of ALEXA FLUOR® 555 dye (Thermo Fisher). Digital images were captured sequentially by a high-speed EM-CCD camera with 100 ms exposure time (Photometrics EVOLVE® 512). […]

JLat10.6 cells = experiment: JLat10.6 cell viability (live/dead staining); settings: 48 h, DMSO control 97%
Procedure: […] Forty-eight hours after treatment, cells were stained for live dead staining using Live/Dead Red stain (BD Biosciences). Viability was determined by fluorescent detection of the live dead stain using a CYTEK® DxP12 flow cytometer. Comparison to untreated cells was used to determine degree of cell viability.
To examine safety of the treatment and effect on T-cell activation, Jlat10.6 cells were treated with different benzodiazepines with and without SAHA. Forty-eight hours after incubation, cells were harvested and stained with red live/dead staining according to the manufacturer protocol (LIVE/DEAD® Fixable Red Dead Cell Stain Kit, ThermoFisher Scientific) (FIG. 2A). Trichostatin A, used as a positive control induced toxicity (68% viable).

[4] = tested on: primary peripheral blood mononuclear cells (PBMCs) from healthy donors; experiment: T cell activation in primary PBMCs (CD69 flow cytometry); settings: 10 μM Alprazolam in combination with 0.5 μM SAHA, 24 h
Procedure: To investigate whether alprazolam is specifically activating HIV-1 or having general effect on T cell activation (CD4 and CD8), primary PBMC from two healthy donors were treated with 10 μM, 50 μM Alprazolam or Ro5-3335 respectively alone or in combination with 0.5 μM SAHA. Twenty-four hours after treatment, cells were stained using Zombie yellow live and dead staining and then stained for CD3, CD8, CD4, CD69, and then fixed for analysis by flow cytometry. AntiCD3/CD28 and PHA were included as a positive control. Samples were analyzed on a CYTEK® DxP12 flow cytometer followed by analysis using FLOWJO® v10 software (Treestar)
In order to investigate whether alprazolam was specifically activating HIV-1 or having a general effect on T cell activation (CD4 and CD8), primary peripheral blood mononuclear cells (PBMCs) from two healthy donors were treated with 10 μM Alprazolam or 50 μM Ro5-3335, both alone or in combination with 0.5 μM SAHA. Twenty-four hours after treatment, cells were stained using Zombie yellow live and dead staining, then stained for CD3, CD8, CD4, CD69, and then fixed for analysis by flow cytometry. AntiCD3/CD28 and PHA were included as a positive control (FIG. 2B).

Compound: O=C1CN=C(c2ccccc2Cl)c2cc([N+](=O)[O-])ccc2N1 [Clonazepam]
- H3K9ac at the HIV-1 LTR versus SAHA alone (in words) [1]: potentiation was not seen
- maximal effect in dose dependent reactivation (in words) ([2]; alone, FIG. 1B): smaller maximal effect, but at lower doses

Compound: CN1C(=O)CN=C(c2ccccc2F)c2cc([N+](=O)[O-])ccc21 [Flunitrazepam]
- percentage of GFP+ live cells [2]: 9.1%

Compound: O=C1CN=C(c2ccc[nH]2)c2cc(Cl)ccc2N1 [Ro5-3335]
- luciferase expression driven by Tat (in words) (HIV-1 Tat): significantly suppressed luciferase expression; also recorded: significant suppression of Tat
- H3K9ac at the HIV-1 LTR versus SAHA alone (in words) [1]: potentiation was not seen
- expression of seven selected RUNX responsive genes (in words) (RUNX1 responsive genes): significantly altered the expression of five of the selected RUNX responsive genes
- recruitment of CBP/P300 to the HIV-1 LTR (CBP/P300): 3 fold
- increase in HIV-1 transcripts (Gag mRNA) (HIV-1 Gag mRNA; 50 μM Ro5-3335 alone, two patients, versus DMSO control): 1.5 fold and 1.2 fold
- activation of latent virus (in words) ([2]; Ro5-3335 by itself, without SAHA): did not activate the virus by itself
- IL-17 promoter activity (in words) (IL-17 promoter; all three conditions: alone, with SAHA, with RUNX1 overexpression): inhibited IL-17 promoter in a dose dependent fashion
- acetylated H3K9 in the nuclei (in words) ([3]; Ro5-3335 and SAHA): further increased the acetylation; also recorded: increase in acetylated histone 3 at lysine 9

Compound: CC(/C=C/C(=O)NO)=C\[C@@H](C)C(=O)c1ccc(N(C)C)cc1 [Trichostatin A, [R-(E,E)]-7-[4-(Dimethylamino)phenyl]-N-hydroxy-4,6-dimethyl-7-oxo-2,4-heptadienamide]
- viable cells (JLat10.6 cells; positive control): 68%

Compound: O=C(CCCCCCC(=O)Nc1ccccc1)NO [SAHA, N-hydroxy-N′-phenyloctanediamide]
- occupancy of H3K9ac at the promoter (in words) ([1]; 5 μM SAHA alone, compared to DMSO control): increased the occupancy of H3K9ac
- recruitment of CBP/P300 (in words) (CBP/P300; SAHA alone): no increase in recruitment
- viability (JLat10.6 cells; 0.5 μM SAHA): 94.6%
- GFP+ cells ([2]; 0.5 uM SAHA alone, FIG. 1B): 5.9%
- GFP+ cells ([2]; SAHA alone, FIG. 1A screen, DMSO 2.8%): 6.2%
- IL-17 driven luciferase expression (in words) (IL-17 promoter; SAHA treatment compared to control): increased IL-17 driven luciferase expression
- acetylated H3K9 in the nuclei (in words) ([3]; SAHA alone): increase in acetylated H3K9; also recorded: increase in acetylated histone 3 at lysine 9

Compound: O=C(O)C1N=C(c2ccccc2)c2cc(Cl)ccc2NC1=O (stereo not drawn) [Clorazepate]
- luciferase expression driven by Tat (in words) (HIV-1 Tat): additional activation beyond what was seen with Tat alone
- maximal effect in dose dependent reactivation (in words) ([2]; alone, FIG. 1B): smaller maximal effect, but at lower doses

Compound: CN1C(=O)CN=C(c2ccccc2)c2cc(Cl)ccc21 [Diazepam]
- percentage of GFP+ live cells [2]: 12.4%
- activation compared with the other tested benzodiazepines (in words) [2]: maximum activation

Compound: Cc1nnc2n1-c1ccc(Cl)cc1C(c1ccccc1)=NC2 [Alprazolam]
- luciferase expression driven by Tat (in words) (HIV-1 Tat): additional activation beyond what was seen with Tat alone
- H3K9ac at the HIV-1 LTR versus SAHA alone (in words) [1]: further increased acetylation over SAHA alone
- T cell activation (in words) [4]: did not induce any significant T cell activation
- T cell activation (in words) ([4]; listed as alprazolam): did not induce significant T-cell activation
- recruitment of CBP/P300 to the HIV-1 LTR (CBP/P300): 7 fold
- increase in HIV-1 Gag RNA (HIV-1 Gag mRNA; Patient 1, versus DMSO control): 4.6 fold
- increase in HIV-1 Gag RNA (HIV-1 Gag mRNA; Patient 2, versus DMSO control): 3.3 fold
- percentage of GFP+ live cells [2]: 20.3%
- GFP+ cells, dose dependent reactivation ([2]; alone, at 10 μM, FIG. 1B, DMSO control 2.8%): 25.5%
- activation compared with the other tested benzodiazepines (in words) [2]: maximum activation
- IL-17 promoter luciferase activity (in words) (IL-17 promoter; RUNX1 over expression): increased luciferase activity
- IL-17 promoter activity (in words) (IL-17 promoter; absence of SAHA or RUNX1 over expression, lowest dose 0.1 μM): statistically significant suppression
- IL-17 promoter luciferase activity (in words) (IL-17 promoter; in the presence of SAHA): no effect on luciferase activity
